Source: patent US20080057071A1, “Use Of Hedgehog Pathway Inhibitors In Small-Cell Lung Cancer” (priority 2003, published 2008)

Key:
Type in all cases: cell-based, human
[1] = system: NCI-H249 SCLC cells; experiment: Cell cycle analysis in NCI-H249 cells; details: unsynchronized NCI-H249 SCLC cells; 5 μM; 72 h; FIG. 3e
[2] = system: NCI-H249 SCLC cells; experiment: Cell growth of NCI-H249 SCLC cells (MTT assay); details: for cell growth after compound treatment: NCI-H249 SCLC cells, 5 days, FIG. 3b
Method: (§1) MTT assays were performed as described (Sriuranpong (2002), supra).

[3] = system: NCI-H249 SCLC cells; experiment: Soft agar clonogenicity of NCI-H249 SCLC cells; details: FIG. 4a, b
[4] = system: Ptch mRNA; experiment: Ptch mRNA expression by northern blot analysis; details: NCI-H249 SCLC cells, FIG. 3g
[5] = system: BMP4, nestin and ASH-1 transcripts; experiment: RT-PCR analysis of transcripts in NCI-H249 SCLC cells; details: 48 h, FIG. 3h
Method: Total cellular RNA was treated with DNAse, reverse transcribed, and amplified for 31 cycles at an annealing temperature of 55° C. Primers used were: […]

[6] = system: NCI-H249 SCLC cells; experiment: Cleaved PARP expression (apoptosis) by immunoblot; details: 5 μM, 72 h, FIG. 3f
Method: Whole-cell lysates were sonicated in 2% SDS/50 mM TrisHCl, pH 8. […] Anti-cleaved PARP was obtained from Promega.

[7] = system: NCI-H157 NSCLC cells; experiment: Cell growth of NCI-H157 NSCLC cells (MTT assay); details: 5 days, FIG. 3c
Method: as §1

Row | SMILES | cell cycle effect [1] | growth inhibition by cyclopamine in cells stably expressing Flag-tagged GLI-1 ([2]; NCI-H249 SCLC cells stably transfected with Flag-Gli1, MTT, FIG. 3d) | growth inhibition by cyclopamine in cells expressing GLI-1 mutant lacking the zinc finger DNA-binding domain ([2]; NCI-H249 SCLC cells stably transfected with Flag-Gli1ZFD, MTT, FIG. 3d) | soft agar clonogenicity effect in cells overexpressing GLI-1 ([3]; NCI-H249 SCLC cells stably transfected with Flag-Gli1, cyclopamine 5 μM) | soft agar clonogenicity ([3]; NCI-H249 SCLC cells) | Ptch mRNA expression [4] | BMP4 expression [5] | human ASH-1 expression [5] | nestin expression [5] | apoptosis (cleaved PARP) [6] | cell growth after compound treatment [7] | cell growth after compound treatment [2]
1 | CC1=C2C[C@H]3[C@@H](CC=C4C[C@@H](O)CC[C@@]43C)[C@@H]2CC[C@]12O[C@@H]1C[C@H](C)CN[C@H]1[C@H]2C [cyclopamine] | arrest of the cell cycle in Go/G1 | protected NCI-H249 SCLC cells from growth inhibition | had no effect | reversed | reduced soft agar clonogenicity | downregulation | inhibited expression | inhibited expression | inhibited expression | increase in cleaved PARP |  | 
2 | CC1=C2C[C@H]3[C@@H](CC=C4CC(=O)CC[C@@]43C)[C@@H]2CC[C@]12O[C@@H]1C[C@H](C)CN(CCNC(=O)CCCCCNC(=O)CCc3ccccc3)[C@H]1[C@H]2C [KAAD-cyclopamine] |  |  |  |  |  |  |  |  |  |  | None of KAAD-cyclopamine, cyclopamine or tomatidine was able to affect growth | significant growth inhibition
3 | C[C@H]1CC[C@]2(NC1)O[C@H]1C[C@H]3[C@@H]4CC[C@H]5C[C@@H](O)CC[C@]5(C)[C@H]4CC[C@]3(C)[C@H]1[C@@H]2C [tomatidine] |  |  |  |  |  |  |  |  |  |  | None of KAAD-cyclopamine, cyclopamine or tomatidine was able to affect growth | no effect
